Data published in US9856511B2, “Protease deubiquitinating inhibitor screening” (priority 2011, dated 2018).

Legend:
Type in all cases: biochemical
19S RP [1] = molecular target: T1, 19S RP (Homo sapiens, UniProt P54578+Q9Y5K5); test: De-ubiquitinase activity assay, purified 19S RP with ubiquitin-AMC
T1 construct: purchased Boston Biochem E-366
Procedure: In vitro proteasome activity assays were performed in black 96-well microtiter plates using human 20S proteasome (Boston Biochem) in reaction buffer (25 mM Hepes, 0.5 mM EDTA, 0.03% SDS) with Suc-LLVY-AMC, Z-LLE-AMC or Boc-LRRAMC used as substrates for proteasome activity. De-ubiquitinase activity assays were performed with human 19S RP (Boston Biochem) with ubiquitin-AMC as substrate. For xenograft studies a 100-μl-cell suspension containing 1×10^6 FaDu head-neck or 2×10^5 Lewis Lung Carcinoma (LLC) cells were injected subcutaneously into the flank of SCID or C57BL/6J mice. Upon tumor take mice were randomized into control or treatment groups and administered with 5 mg kg^−1 b-AP15 or vehicle. In vivo levels of apoptosis and cell death were determined from the detection of caspase cleaved and total levels of cytokeratin-18 in plasma using M30 Apoptosense® and M65 ELISA®s assays (Peviva). […]
In vitro proteasome activity assays using 20S CP (2 nM) (Boston Biochem) were performed at 37° C. in 100-μl reaction buffer (25 mM Hepes, 0.5 mM EDTA, 0.03% SDS). […] Fluorescence was monitored using Wallac Multilabel counter or Tecan Infinite M1000 equipped with 360 nm excitation and 460 nm emission filters. […]
Dose response of b-AP15 (FIG. 11a): Purified 19S proteasomes (5 nM) were treated with indicated concentrations of b-AP15, and DUB activity was determined by detection of Ub-AMC cleavage. […]

26S proteasome = molecular target: T2, 26S proteasome (Homo sapiens, UniProt P54578+Q9Y5K5); test: DUB inhibition assay, 26S proteasomes with ubiquitin-AMC; conditions: Ub-AMC
T2 construct: purchased Boston Biochem E-365

19S RP [2] = molecular target: T1, 19S RP; test: Ub-GFP cleavage assay with 19S RP
Procedure: (§1) To this end the ability of b-AP15 to inhibit cleavage of recombinant ubiquitin-GFP was assessed. Recombinant ubiquitin-GFP is a substrate for 19S RP DUB activity (22). […] The type of ubiquitin bonds present in the polyubiquitin chain determines the fate of an ubiquitin-modified substrate. K48 linked polyubiquitin chains generally targets conjoined proteins for degradation (23), whereas K63 linked chains are involved in non-proteolytic roles including DNA repair (24) and mitotic chromosome segregation (25). […] The inhibition of ubiquitin chain disassembly observed could account for the accumulation of high molecular weight ubiquitin conjugates in b-AP15 treated cells.
(§2) The recombinant Ub-GFP plasmid pet19b Ub-M-GFP was generated as described (42). In brief recombinant Ub-GFP was purified from BL21 E. coli cells by His affinity purification. For cleavage assays 19S RP (25 nM) was incubated with 10 mM NEM, 250 μM TPEN or 50 μM b-AP15 for 10 min followed by the addition of recombinant Ub-GFP (200 nM). […] The level of Ub-GFP cleavage or ubiquitin disassembly was determined by immunoblotting with anti ubiquitin antibodies. […] The cleavage of ubiquitinated Hdm2 substrate and ubiquitinated Hdm2 was determined by immunoblotting with anti-Hdm2 antibodies. […]

19S RP [3] = molecular target: T1, 19S RP; test: Ubiquitin chain disassembly of K48/K63 linked ubiquitin tetramers by 19S RP
Procedure: as §1, §2

[4] = test system: non-proteasomal DUBs (UCH-L1, UCH-L3, USP2CD, USP7CD, USP8CD, BAP1); test: Recombinant non-proteasomal DUBs with ubiquitin-AMC, % activity
Procedure: In vitro proteasome activity assays using 20S CP (2 nM) (Boston Biochem) were performed at 37° C. in 100-μl reaction buffer (25 mM Hepes, 0.5 mM EDTA, 0.03% SDS). Samples were incubated for 10 min with indicated compound followed by addition of 10 μM Suc-LLVY-AMC, Z-LLE-AMC or Boc-LRR-AMC for the detection of chymotrypsin-like, caspase-like and trypsin-like activity respectively. For DUB inhibition assays 19S RP (5 nM), 26S (5 nM) UCH-L1 (5 nM), UCH-L3 (0.3 nM), USP2CD (5 nM) USP7CD (5 nM) USP8CD (5 nM) and BAP1 (5 nM) were incubated with b-AP15 followed by addition of ubiquitin-AMC (1000 nM). Fluorescence was monitored using Wallac Multilabel counter or Tecan Infinite M1000 equipped with 360 nm excitation and 460 nm emission filters. Substrate overlay assays. Native gel electrophoresis was performed as described (41). In brief 4 μg of purified 26S proteasome (Boston Biochem) was mixed with 10 or 50 μM b-AP15 and incubated at 37° C. for 10 min. Samples were resolved on 4% non-denaturing PAGE. Gels were submerged in assay buffer (20 mM Tris-HCL, 5 mM MgCl2, 1 mM ATP, 0.1 mM Suc-LLVY-AMC) and proteasomes were visualized under UV illumination.
HCT-116 cells were treated for 3 h with b-AP15 (1 μM) and the proteasomes were affinity purified (FIG. 12a). […] Recombinant non-proteosomal DUBs were treated with b-AP15 and % activity determined. […]

Question: What does the source list for `C=CC(=O)N1C/C(=C\c2ccc([N+](=O)[O-])cc2)C(=O)/C(=C/c2ccc([N+](=O)[O-])cc2)C1` [b-AP15]?
Answer: effect of reduced glutathione on inhibition of 19S DUB activity (19S RP [1]; b-AP15 10 μM mixed with GSH 2 mM, 19S 5 nM): did not reduce b-AP15 mediated inhibition; reversibility of inhibition of 19S DUB activity (19S RP [1]; recovery of activity after 50-fold rapid dilution of enzyme/b-AP15 complex): reversible inhibitor; inhibition of deubiquitinating activity of 26S proteasome (26S proteasome): inhibits the deubiquitinating activity; cleavage of Ub-GFP by 19S RP (19S RP [2]): effectively inhibited; 19S RP processing of K48 and K63 linked ubiquitin tetramers (19S RP [3]): inhibited 19S RP processing of both K48 and K63 linked ubiquitin tetramers; inhibition of recombinant non-proteasomal DUBs [4]: does not inhibit non-proteasomal DUBs
